From patent US4564619A, “Carbostyril derivative” (Otsuka Pharmaceutical Co., Ltd., priority 1982, dated 1986) come the findings set out here.

As a reminder, the inhibition is the percentage by which the read-out fell short of the control.

For assay [1], the system named is ADP-induced aggregation in rabbit platelets. The experiment in a line: Inhibition of ADP-induced platelet aggregation in rabbit platelet rich plasma. Type of assay: cell-based. The conditions noted are these: Oryctolagus cuniculus, read-out: Inhibition rate of ADP-induced aggregation; for inhibition at 100 µM (stock): Concentration of the test compound solution 10^-4 mole; for inhibition at 10 µM (stock): Concentration of the test compound solution 10^-5 mole. How it is done: (§1) The platelet aggregation inhibitory effect was measured by using a Platelet Aggregation Tracer Model PAT-6M (manufactured by Nikoh Bio-Science Co., Ltd.) by a method according to Kimura, et al., [IGAKU-NO-AYUMI (Progress in Medicine), Vol. 114, No. 9, pp. 718-727, Aug. 30, 1980, and Nature, pp. 927-929, 1962].
(§2) The blood sample used for the test was a 1:9 (by volume) mixture of "3.8%-CITRATE"® (a registered trademark for 3.8%-sodium citrate, manufactured by Green Cross Corp.) and whole blood collected from rabbits. Said sample was subjected to 10-minute centrifugal separation at 1,000 r.p.m. (200xG) to obtain a platelet rich plasma (PRP). The PRP thus obtained was separated, and the remaining blood sample was further subjected to 15-minute centrifugal separation at 3,000 r.p.m. (2,000xG) to obtain a platelet poor plasma (PPP).
(§3) The number of platelets in the PRP was counted by the Brecher-Clonkite Method, and the PRP was diluted with the PPP to prepare a PRP sample with a platelet concentration of 600,000/microliter to prepare for an adenosine diphosphate (ADP)-induced aggregation test, and a collagen-induced aggregation test. 0.2 Milliliter of the PRP sample was added to 2 microliters of a solution of a test compound of predetermined concentration and this mixture was placed in a 37° C. thermostat for one minute. Then 20 microliters of an ADP or collagen solution was added to the mixture. In this test, the ADP solution was prepared by adjustment to a concentration of 7.5×10^-5 M by using Auren-Beronal buffer solution (pH 7.35). Further, the collagen solution was prepared by adjustment to a concentration of 200 micrograms/ml by using collagen reagent of "Holm"® (manufactured by Hormon-Chemie Munchen, GmbH.) which was diluted wih a physiological saline solution.
(§4) The transmittance of the resultant test mixture was determined and the change of transmittance was recorded by using the aggregometer at a stirrer speed of 1,100 r.p.m.
(§5) The platelet aggregation inhibitory effect of the test compound was measured in terms of inhibition rate (%) with respect to the aggregation rate of the controls. The aggregation rate was calculated from the following formula.
(§6) Aggregation rate=[(c-a)/(b-a)]×100
(§7) The percent inhibition is calculated from the following formula.
(§8) Inhibition rate (%)=[(A-B)/A]×100
(§9) The inhibitory effect of the test compounds on collagen-induced aggregation in rabbit platelets is shown in Table 1, similarly such effect on ADP-induced aggregation in rabbit platelets is shown in Table 2.

The subject of the next assay is coronary artery. The experiment in a line: Increased amount of the blood flow in coronary artery, intravenous administration, anesthetized dog. In kind it is in vivo. How it is done:
(§10) The change of blood flow in coronary artery and the change of blood pressure were measured by a method according to Yakura et al., [Japan Journal of Pharmacology, Vol. 57, pages 380-391 (1961)] and according to Taira, et al. [Clin. Exp. Pharmacol. Physiol., Vol. 6, pages 301-316, (1976)].
(§11) An adult bastard dog of either sex weighing 8-13 kg was anesthetized with sodium pentobarbital at the rate of 30 mg/kg by intraveneous administration, then the dog was fixed in supination and was theracotomized under a condition of forced breathing. After another intraveneous administration of sodium heparin at the rate of 500 U/kg, 100 U/kg per hour, the dog was subjected to the following experiments.
(§12) (2) Intraveneous administration
(§13) Morawitz's cannula was cannulated to the coronary sinus venosus through the auricula dextra cordis, and the blood in vein was circulated to the right carotid. The blood flow was measured by an electromagnetic blood flow meter equipped with a blood flow observation probe in the extracorporeal circulation path of the vein. The systolic force was measured by a systolometer (pick-up) placed at the left ventricle of heart, the blood pressure was measured from the femoral artery, and the heart rate was measured from the pulse. A compound to be tested was administered through the cannula being cannulated in femoral vein. The increased amount of the blood flow in coronary artery after the administration of the test compound is shown in Table 4, also the change of blood pressure is shown in Table 5.

Assay [2] concerns collagen-induced aggregation in rabbit platelets. The experiment in a line: Inhibition of collagen-induced platelet aggregation in rabbit platelet rich plasma. To be noted: Oryctolagus cuniculus, read-out: Inhibition rate of collagen-induced aggregation; for inhibition at 100 µM (stock): Concentration of the test compound solution 10^-4 mole; for inhibition at 10 µM (stock): Concentration of the test compound solution 10^-5 mole. Type of assay: cell-based. How it is done: as §1, §2, §3, §4, §5, §6, §7, §8, §9

A short description of assay [3]: Change of blood pressure, intravenous administration, anesthetized dog. In kind it is in vivo. Details: unit not given here. To be noted: femoral artery. The procedure: as §10, §11, §12, §13

For `COC(=O)C1=C(C)NC(C)=C(C(=O)OCCCOc2ccc(O)c3c2CCC(=O)N3)C1c1cccc([N+](=O)[O-])c1` (stereo not shown) [Compound 7, 5-{3-[2,6-Dimethyl-5-methoxycarbonyl-4-(3-nitrophenyl)-1,4-dihydropyridin-3-carboxy]-propoxy}-8-hydroxy-3,4-dihydrocarbostyril], the inhibition at 100 µM (stock) amounted to 14% in assay [1] and 15% in assay [2]. The inhibition at 10 µM (stock) in assay [1] and in assay [2] was 3% each time. In addition, the results for the “Increased amount of the blood flow in coronary artery” value (“Increased amount of the blood flow” for short) in the assay on coronary artery (30 micrograms/kg), with coronary artery (100 micrograms/kg) and with coronary artery (300 micrograms/kg) were 1 mL/min, 15 mL/min and 47 mL/min, respectively. The “Change of blood pressure” value in assay [3] (10 micrograms/kg) is -2; in assay [3] (30 micrograms/kg) it was -4; in assay [3] (100 micrograms/kg), -9; in assay [3] (300 micrograms/kg), -14.

`COC(=O)C1=C(C)NC(C)=C(C(=O)OCCN(C(=O)CCCOc2ccc3[nH]c(=O)ccc3c2)C2CCCCC2)C1c1ccccc1[N+](=O)[O-]` (stereo not shown) [Compound 34, N--{2-[1,4-Dihydro-2,6-dimethyl-5-methoxycarbonyl-4-(2-nitrophenyl)pyridin-3-carboxy]ethyl}-N--cyclohexyl-4-(6-carbostyriloxy)butyramide]: the inhibition at 100 µM (stock) in assay [1] is 94%; in assay [2], 100%. Further, the inhibition at 10 µM (stock) came out at 98% in assay [1] and 100% in assay [2]. For the same compound, the “Increased amount of the blood flow” value in the assay on coronary artery (100 micrograms/kg) was determined as 22 mL/min; with coronary artery (300 micrograms/kg), 47 mL/min; in the assay on coronary artery (1000 micrograms/kg), 54 mL/min.

For `CCN(CCOC(=O)C1=C(C)NC(C)=C(C(=O)OC)C1c1ccccc1)C(=O)CCCOc1ccc2[nH]c(=O)ccc2c1` (stereo not shown) [Compound 36, N--[2,(1,4-Dihydro-2,6-dimethyl-5-methoxycarbonyl-4-phenylpyridin-3-carboxy)ethyl]-N--ethyl-4-(6-carbostyriloxy)butyramide], the inhibition at 100 µM (stock) in assay [1] was found to be 98%; in assay [2] it was 100%. The inhibition at 10 µM (stock) in assay [1] was 55%; in assay [2], 100%. Moreover, the “Increased amount of the blood flow” value came to 4 mL/min in the assay on coronary artery (100 micrograms/kg), 12 mL/min with coronary artery (300 micrograms/kg) and 38 mL/min with coronary artery (1000 micrograms/kg).

For the compound `COC(=O)C1=C(C)NC(C)=C(C(=O)OCCCCOc2ccc3c(c2)CCC(=O)N3)C1c1ccccc1C` (stereo not shown) [Compound 29, 6-{4-[2,6-Dimethyl-5-methoxycarbonyl-4-(2-methylphenyl-1,4-dihydropyridin-3-carboxy)]-butoxy}-3,4-dihydrocarbostyril], the inhibition at 100 µM (stock) in assay [1] amounted to 59%; in assay [2], 69%. The “Change of blood pressure” value is on record as -7 in assay [3] (3 micrograms/kg); -23 in assay [3] (10 micrograms/kg); -45 in assay [3] (30 micrograms/kg); -70 in assay [3] (100 micrograms/kg); -80 in assay [3] (300 micrograms/kg).

For `COC(=O)C1=C(C)NC(C)=C(C(=O)OCC(COc2ccc3[nH]c(=O)ccc3c2)OC(C)=O)C1c1cccc([N+](=O)[O-])c1` (stereo not shown) [Compound 43, 6-{3-[2,6-Dimethyl-5-methoxycarbonyl-4-(3-nitrophenyl)-1,4-dihydropyridin-3-carboxy]-2-acetoxypropoxy}carbostyril], the inhibition at 100 µM (stock) in assay [1] and in assay [2] was 100% in each case. Also, the inhibition at 10 µM (stock) in assay [1] and in assay [2] was 100% in each case. Also, the “Change of blood pressure” value in assay [3] (30 micrograms/kg) is -4; in assay [3] (100 micrograms/kg), -16; in assay [3] (300 micrograms/kg), -23.

For the compound `COC(=O)C1=C(C)NC(C)=C(C(=O)OCCCOc2ccc3[nH]c(=O)cc(C)c3c2)C1c1cccc([N+](=O)[O-])c1` (stereo not shown) [Compound 38, 4-Methyl-6-{3-[2,6-dimethyl-5-methoxycarbonyl-4-(3-nitrophenyl)-1,4-dihydropyridin-3-carboxy]propoxy}carbostyril], the inhibition at 100 µM (stock) in assay [1] came to 31%; in assay [2] it was 45%. Also, the “Change of blood pressure” value in assay [3] (10 micrograms/kg) is on record as -2; in assay [3] (30 micrograms/kg) it was -10; in assay [3] (100 micrograms/kg), -35.

For `COC(=O)C1=C(C)NC(C)=C(C(=O)OCCCCOc2ccc3c(c2)CCC(=O)N3)C1c1ccccc1Cl` (stereo not shown) [Compound 27, 6-{4-[2,6-Dimethyl-5-methoxycarbonyl-4-(2-chlorophenyl)-1,4-dihydropyridin-3-carboxy]-butoxy}-3,4-dihydrocarbostyril], the inhibition at 100 µM (stock) in assay [1] amounted to 42%; in assay [2], 61%. Besides, the “Change of blood pressure” value in assay [3] (3 micrograms/kg) is listed as -4; in assay [3] (10 micrograms/kg), -10; in assay [3] (30 micrograms/kg) it was -27; in assay [3] (100 micrograms/kg) it was -52.

As to `COC(=O)C1=C(C)NC(C)=C(C(=O)OCCN(C(=O)CCCOc2cccc3[nH]c(=O)ccc23)C2CCCCC2)C1c1cccc([N+](=O)[O-])c1` (stereo not shown) [Compound 33, N--{2-[1,4-Dihydro-2,6-dimethyl-5-methoxycarbonyl-4-(3-nitrophenyl)pyridin-3-carboxy]ethyl}-N--cyclohexyl-4-(5-carbostyriloxy)butyramide], the figures for the inhibition at 100 µM (stock) in assay [1] and in assay [2] were 98% and 100%, respectively. In addition, the inhibition at 10 µM (stock) in assay [1] is 25%; in assay [2] it was 34%. Further, the “Increased amount of the blood flow” value in the assay with coronary artery (100 micrograms/kg) was 1 mL/min; in the assay with coronary artery (300 micrograms/kg), 4 mL/min; in the assay on coronary artery (1000 micrograms/kg), 48 mL/min.

As for `COC(=O)C1=C(C)NC(C)=C(C(=O)OCCCOc2ccc3c(c2)CCC(=O)N3)C1c1cccc([N+](=O)[O-])c1` (stereo not shown) [Compound 5, 6-{3-[2,6-Dimethyl-5-methoxycarbonyl-4-(3-nitrophenyl)-1,4-dihydropyridin-3-carboxy]-propoxy}-3,4-dihydrocarbostyril], the inhibition at 100 µM (stock) in assay [1] came to 20%; in assay [2], 38%. In addition, the inhibition at 10 µM (stock) stood at 4% in assay [1] and 12% in assay [2]. The “Increased amount of the blood flow” value is 3 mL/min in the assay on coronary artery (3 micrograms/kg); 12 mL/min in the assay on coronary artery (10 micrograms/kg); 47 mL/min with coronary artery (30 micrograms/kg); 89 mL/min in the assay with coronary artery (100 micrograms/kg); 77 mL/min with coronary artery (300 micrograms/kg).

As to `COC(=O)C1=C(C)NC(C)=C(C(=O)OCCOc2ccc3[nH]c(=O)ccc3c2)C1c1ccccc1[N+](=O)[O-]` (stereo not shown) [Compound 20, 6-{2-[2,6-Dimethyl-5-methoxycarbonyl-4-(2-nitrophenyl)-1,4-dihydropyridin-3-carboxy]-ethoxy}carbostyril], the inhibition at 100 µM (stock) in assay [1] and in assay [2] was 100% in each case. The inhibition at 10 µM (stock) was 65% in assay [1] and 100% in assay [2]. In addition, the results for the “Change of blood pressure” value in assay [3] (30 micrograms/kg), in assay [3] (100 micrograms/kg) and in assay [3] (300 micrograms/kg) were -4, -8 and -32, respectively.
